In the NIST ThermoML archive (doi:10.1021/je034253u):

Experiment: excess molar enthalpy (molar enthalpy of mixing); xn = mol fraction of the nth substance listed
Conditions: Liquid, Flow calorimetry

FC(F)C(F)(F)F [pentafluoroethane] + FCF
308.15 K, 5130 kPa
Conditions | excess molar enthalpy [kcal/mol]
x2 = 0.088 | 0.00598
x2 = 0.1692 | 0.012
x2 = 0.2444 | 0.0174
x2 = 0.3142 | 0.0227
x2 = 0.3792 | 0.0272
x2 = 0.4399 | 0.0308
x2 = 0.4967 | 0.0337
x2 = 0.5499 | 0.0359
x2 = 0.5999 | 0.037
x2 = 0.647 | 0.0375
x2 = 0.6913 | 0.037
x2 = 0.7332 | 0.0359
x2 = 0.7729 | 0.0339
x2 = 0.8105 | 0.0311
x2 = 0.8461 | 0.0275
x2 = 0.88 | 0.0232
x2 = 0.9122 | 0.0182
x2 = 0.9428 | 0.0124
x2 = 0.9721 | 0.00621

CC1CO1 (stereo not drawn) [methyloxirane] + CCCC(C)C
323.15 K, 1140 kPa
Conditions | excess molar enthalpy [kcal/mol]
x1 = 0.0895 | 0.0966
x1 = 0.1719 | 0.1678
x1 = 0.2479 | 0.2199
x1 = 0.3184 | 0.2548
x1 = 0.3838 | 0.2782
x1 = 0.4447 | 0.2909
x1 = 0.5015 | 0.2964
x1 = 0.5547 | 0.2945
x1 = 0.6045 | 0.2873
x1 = 0.6514 | 0.2763
x1 = 0.6954 | 0.2591
x1 = 0.737 | 0.2397
x1 = 0.7763 | 0.2177
x1 = 0.8134 | 0.1924
x1 = 0.8486 | 0.165
x1 = 0.882 | 0.135
x1 = 0.9137 | 0.103
x1 = 0.9439 | 0.0691
x1 = 0.9726 | 0.0332
